From ChEMBL document CHEMBL4706498, “Rosuvastatin based novel 3-substituted isocoumarins / 3-alkylidenephthalides: Ultrasound assisted synthesis and identification of new anticancer agents” (Eur J Med Chem, 2020)

System: HCT-116
Experiment: Cytotoxicity against human HCT-116 cells assessed as inhibition of cell growth at 10 uM measured after 24 hrs by MTT assay (reference value: 0.17%)
Type: functional

Row | SMILES | inhibition at 10 µM
1 | CC(C)c1nc(N(C)S(C)(=O)=O)nc(-c2ccc(F)cc2)c1COCc1cc2cc(Cl)ccc2c(=O)o1 | 19.8%
2 | Cc1ccc2c(c1C)/C(=C/COCc1c(-c3ccc(F)cc3)nc(N(C)S(C)(=O)=O)nc1C(C)C)OC2=O | 18.9%
3 | COc1ccc2c(=O)oc(COCc3c(-c4ccc(F)cc4)nc(N(C)S(C)(=O)=O)nc3C(C)C)cc2c1 | 41.8%
4 | COc1cccc2c1/C(=C/COCc1c(-c3ccc(F)cc3)nc(N(C)S(C)(=O)=O)nc1C(C)C)OC2=O | 25.4%
5 | Cc1ccc2cc(COCc3c(-c4ccc(F)cc4)nc(N(C)S(C)(=O)=O)nc3C(C)C)oc(=O)c2c1 | 26%
6 | CC(C)c1nc(N(C)S(C)(=O)=O)nc(-c2ccc(F)cc2)c1COC/C=C1\OC(=O)c2cccc(Cl)c21 | 25.5%

System: HepG2
Experiment: Cytotoxicity against human HepG2 cells assessed as inhibition of cell growth at 10 uM measured after 24 hrs by MTT assay (reference value: 0.21%)
Type: functional

Row | SMILES | inhibition at 10 µM
7 | CC(C)c1nc(N(C)S(C)(=O)=O)nc(-c2ccc(F)cc2)c1COCc1cc2cc(Cl)ccc2c(=O)o1 | 10.9%
8 | Cc1ccc2c(c1C)/C(=C/COCc1c(-c3ccc(F)cc3)nc(N(C)S(C)(=O)=O)nc1C(C)C)OC2=O | 21.6%
9 | COc1ccc2c(=O)oc(COCc3c(-c4ccc(F)cc4)nc(N(C)S(C)(=O)=O)nc3C(C)C)cc2c1 | 39.7%
10 | COc1cccc2c1/C(=C/COCc1c(-c3ccc(F)cc3)nc(N(C)S(C)(=O)=O)nc1C(C)C)OC2=O | 26.5%
11 | Cc1ccc2cc(COCc3c(-c4ccc(F)cc4)nc(N(C)S(C)(=O)=O)nc3C(C)C)oc(=O)c2c1 | 24.1%
12 | CC(C)c1nc(N(C)S(C)(=O)=O)nc(-c2ccc(F)cc2)c1COC/C=C1\OC(=O)c2cccc(Cl)c21 | 22.1%

System: PA-1
Experiment: Cytotoxicity against human PA-1 cells assessed as inhibition of cell growth at 10 uM measured after 24 hrs by MTT assay (reference value: 0.19%)
Type: functional

Row | SMILES | inhibition at 10 µM
13 | CC(C)c1nc(N(C)S(C)(=O)=O)nc(-c2ccc(F)cc2)c1COCc1cc2cc(Cl)ccc2c(=O)o1 | 16.8%
14 | Cc1ccc2c(c1C)/C(=C/COCc1c(-c3ccc(F)cc3)nc(N(C)S(C)(=O)=O)nc1C(C)C)OC2=O | 19.9%
15 | COc1ccc2c(=O)oc(COCc3c(-c4ccc(F)cc4)nc(N(C)S(C)(=O)=O)nc3C(C)C)cc2c1 | 40.1%
16 | COc1cccc2c1/C(=C/COCc1c(-c3ccc(F)cc3)nc(N(C)S(C)(=O)=O)nc1C(C)C)OC2=O | 24.3%
17 | Cc1ccc2cc(COCc3c(-c4ccc(F)cc4)nc(N(C)S(C)(=O)=O)nc3C(C)C)oc(=O)c2c1 | 28.4%
18 | CC(C)c1nc(N(C)S(C)(=O)=O)nc(-c2ccc(F)cc2)c1COC/C=C1\OC(=O)c2cccc(Cl)c21 | 26.8%

System: not listed separately
Experiment: Cytotoxicity against human HEK cells assessed as inhibition of cell growth at 10 uM measured after 24 hrs by MTT assay (reference value: 0.11%)
Type: cell-based

Row | SMILES | inhibition at 24 h, 10 µM
19 | CC(C)c1nc(N(C)S(C)(=O)=O)nc(-c2ccc(F)cc2)c1COCc1cc2cc(Cl)ccc2c(=O)o1 | 1.3%
20 | Cc1ccc2c(c1C)/C(=C/COCc1c(-c3ccc(F)cc3)nc(N(C)S(C)(=O)=O)nc1C(C)C)OC2=O | 1.9%
21 | COc1ccc2c(=O)oc(COCc3c(-c4ccc(F)cc4)nc(N(C)S(C)(=O)=O)nc3C(C)C)cc2c1 | 3.4%
22 | COc1cccc2c1/C(=C/COCc1c(-c3ccc(F)cc3)nc(N(C)S(C)(=O)=O)nc1C(C)C)OC2=O | 4.1%
23 | Cc1ccc2cc(COCc3c(-c4ccc(F)cc4)nc(N(C)S(C)(=O)=O)nc3C(C)C)oc(=O)c2c1 | 3.2%
24 | CC(C)c1nc(N(C)S(C)(=O)=O)nc(-c2ccc(F)cc2)c1COC/C=C1\OC(=O)c2cccc(Cl)c21 | 3.7%
